Biological target: PRMT6 (Homo sapiens, UniProt Q96LA8)
Experiment: radioactive assay (Reaction Biology Corp.), inhibition of PRMT6
Assay type: biochemical
Settings: not given
Protocol: (§1) Next, the inhibition activity of the library was investigated for five PRMT members from type I PRMTs.
(§2) The PRMT 4, 6 and 8 methylation assays were performed by Reaction Biology corp.

Chain of PRMT6 (Q96LA8 whole entry, species assumed): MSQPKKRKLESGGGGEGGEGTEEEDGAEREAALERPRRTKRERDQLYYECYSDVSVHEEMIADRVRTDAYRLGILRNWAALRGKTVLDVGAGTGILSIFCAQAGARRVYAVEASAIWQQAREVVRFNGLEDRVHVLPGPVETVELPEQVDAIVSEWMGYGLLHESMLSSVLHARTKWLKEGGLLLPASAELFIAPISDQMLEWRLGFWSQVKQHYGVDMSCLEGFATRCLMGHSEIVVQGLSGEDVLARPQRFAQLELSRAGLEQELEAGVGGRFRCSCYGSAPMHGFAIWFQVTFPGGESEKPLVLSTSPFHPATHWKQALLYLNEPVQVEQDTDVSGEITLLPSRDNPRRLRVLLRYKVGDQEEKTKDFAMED

| SMILES | inhibition at 10 µM [%] |
| --- | --- |
| N=C(NCCSC[C@H]1O[C@@H](n2cnc3c(N)ncnc32)[C@H](O)[C@@H]1O)NCc1ccccc1 [Compound 5a] | 93 |
| N=C(NCCSC[C@H]1O[C@@H](n2cnc3c(N)ncnc32)[C@H](O)[C@@H]1O)Nc1cccc(I)c1 [Compound 5c] | 98 |
| N=C(NCCCSC[C@H]1O[C@@H](n2cnc3c(N)ncnc32)[C@H](O)[C@@H]1O)Nc1ccccc1 [Compound 5d] | 99 |
| N=C(NCCSC[C@H]1O[C@@H](n2cnc3c(N)ncnc32)[C@H](O)[C@@H]1O)Nc1cccc(-c2ccc(Cl)cc2)c1 [Compound 6a] | 91 |
| N=C(NCCSC[C@H]1O[C@@H](n2cnc3c(N)ncnc32)[C@H](O)[C@@H]1O)Nc1cccc(-c2ccc(C(F)(F)F)cc2)c1 [Compound 6b] | 91 |

Biological target: PRMT3 (Homo sapiens, UniProt O60678)
Experiment: SAHH-coupled fluorescence assay, inhibition of PRMT3
Assay type: biochemical
Parameters: PRMT3 (residues 211-531) was cloned into the pET28a-MHL expression vector; tag of the pET28a-MHL vector (not described); made in house; host or cells: Escherichia coli BL21(DE3)
Settings: not given
Summary of the method: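 Coupled SAHH/ThioGlo4 fluorescence read-out (ex 380 nm, em 505 nm) of PRMT3 (0.25 μM) methylation with 30 μM AdoMet and 5 μM SAHH. Buffer was 20 mM Tris pH 7.5 with 0.01% Triton X-100. Run in duplicate.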

Chain of PRMT3 (Homo sapiens, UniProt O60678) (O60678 211-531): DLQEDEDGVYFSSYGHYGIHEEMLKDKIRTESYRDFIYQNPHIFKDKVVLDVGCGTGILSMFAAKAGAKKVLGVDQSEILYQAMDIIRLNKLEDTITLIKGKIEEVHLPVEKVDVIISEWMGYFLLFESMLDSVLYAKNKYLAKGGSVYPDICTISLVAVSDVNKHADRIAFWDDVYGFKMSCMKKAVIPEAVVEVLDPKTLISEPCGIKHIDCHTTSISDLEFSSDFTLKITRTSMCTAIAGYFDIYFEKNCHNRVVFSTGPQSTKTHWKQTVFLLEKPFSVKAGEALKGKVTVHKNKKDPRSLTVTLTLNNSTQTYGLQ

| SMILES | inhibition at 10 µM [%] |
| --- | --- |
| N=C(NCCSC[C@H]1O[C@@H](n2cnc3c(N)ncnc32)[C@H](O)[C@@H]1O)NCc1ccccc1 [Compound 5a] | 57 |
| N=C(NCCSC[C@H]1O[C@@H](n2cnc3c(N)ncnc32)[C@H](O)[C@@H]1O)Nc1cccc(I)c1 [Compound 5c] | 38 |
| N=C(NCCCSC[C@H]1O[C@@H](n2cnc3c(N)ncnc32)[C@H](O)[C@@H]1O)Nc1ccccc1 [Compound 5d] | 54 |
| N=C(NCCSC[C@H]1O[C@@H](n2cnc3c(N)ncnc32)[C@H](O)[C@@H]1O)Nc1cccc(-c2ccc(Cl)cc2)c1 [Compound 6a] | 62 |
| N=C(NCCSC[C@H]1O[C@@H](n2cnc3c(N)ncnc32)[C@H](O)[C@@H]1O)Nc1cccc(-c2ccc(C(F)(F)F)cc2)c1 [Compound 6b] | 42 |

Same assay, conditions: 1d (2C-atom linker) vs II710

| SMILES | fold decrease in PRMT3 inhibition [fold] |
| --- | --- |
| N=C(NCCSC[C@H]1O[C@@H](n2cnc3c(N)ncnc32)[C@H](O)[C@@H]1O)NCc1ccccc1 [Compound 5a] | 3 |

Biological target: T1, PRMT1 (Homo sapiens, UniProt Q99873)
T1 construct: made in house
Experiment: SAHH-coupled fluorescence assay, inhibition of PRMT1
Assay type: biochemical
Settings: not given
Summary of the method: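 PRMT1 (0.1 μM) was run with 10 μM AdoMet, 5 μM SAHH and 10 μM ThioGlo4 in 2.5 mM HEPES pH 7.0, 25 mM NaCl, 25 μM EDTA, 50 μM TCEP and 0.01% Triton X-100. Fluorescence (ex 400/em 465 nm) was monitored for 15 min. Assays were done in duplicate.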

T1 sequence (Q99873 whole entry, species assumed): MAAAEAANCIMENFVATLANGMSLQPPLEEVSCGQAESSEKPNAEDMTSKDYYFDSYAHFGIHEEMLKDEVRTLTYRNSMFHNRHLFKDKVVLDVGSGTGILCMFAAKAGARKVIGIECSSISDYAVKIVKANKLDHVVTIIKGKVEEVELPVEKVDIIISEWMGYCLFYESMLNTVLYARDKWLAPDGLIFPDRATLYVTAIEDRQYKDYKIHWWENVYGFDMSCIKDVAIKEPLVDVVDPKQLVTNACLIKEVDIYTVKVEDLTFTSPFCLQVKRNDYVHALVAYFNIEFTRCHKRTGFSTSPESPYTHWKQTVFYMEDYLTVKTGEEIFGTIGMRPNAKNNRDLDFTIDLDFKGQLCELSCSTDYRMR

| SMILES | inhibition at 10 µM [%] |
| --- | --- |
| N=C(NCCSC[C@H]1O[C@@H](n2cnc3c(N)ncnc32)[C@H](O)[C@@H]1O)NCc1ccccc1 [Compound 5a] | 86 |
| N=C(NCCSC[C@H]1O[C@@H](n2cnc3c(N)ncnc32)[C@H](O)[C@@H]1O)Nc1cccc(I)c1 [Compound 5c] | 95 |
| N=C(NCCCSC[C@H]1O[C@@H](n2cnc3c(N)ncnc32)[C@H](O)[C@@H]1O)Nc1ccccc1 [Compound 5d] | 94 |
| N=C(NCCSC[C@H]1O[C@@H](n2cnc3c(N)ncnc32)[C@H](O)[C@@H]1O)Nc1cccc(-c2ccc(Cl)cc2)c1 [Compound 6a] | 89 |
| N=C(NCCSC[C@H]1O[C@@H](n2cnc3c(N)ncnc32)[C@H](O)[C@@H]1O)Nc1cccc(-c2ccc(C(F)(F)F)cc2)c1 [Compound 6b] | 83 |

Same assay, conditions: read-out: IC50[μM] | PRMT1

| SMILES | IC50 [µM] |
| --- | --- |
| N=C(NCCSC[C@H]1O[C@@H](n2cnc3c(N)ncnc32)[C@H](O)[C@@H]1O)NCc1ccccc1 [Compound 5a] | 1 ± 0.065 |
| N=C(NCCSC[C@H]1O[C@@H](n2cnc3c(N)ncnc32)[C@H](O)[C@@H]1O)Nc1cccc(I)c1 [Compound 5c] | 0.13 ± 0.006 |
| N=C(NCCCSC[C@H]1O[C@@H](n2cnc3c(N)ncnc32)[C@H](O)[C@@H]1O)Nc1ccccc1 [Compound 5d] | 0.17 ± 0.011 |
| N=C(NCCSC[C@H]1O[C@@H](n2cnc3c(N)ncnc32)[C@H](O)[C@@H]1O)Nc1cccc(-c2ccc(Cl)cc2)c1 [Compound 6a] | 0.21 ± 0.054 |
| N=C(NCCSC[C@H]1O[C@@H](n2cnc3c(N)ncnc32)[C@H](O)[C@@H]1O)Nc1cccc(-c2ccc(C(F)(F)F)cc2)c1 [Compound 6b] | 1.8 ± 0.17 |

Biological target: T2, PRMT4 (Homo sapiens, UniProt Q86X55)
T2 sequence (Q86X55 1-608): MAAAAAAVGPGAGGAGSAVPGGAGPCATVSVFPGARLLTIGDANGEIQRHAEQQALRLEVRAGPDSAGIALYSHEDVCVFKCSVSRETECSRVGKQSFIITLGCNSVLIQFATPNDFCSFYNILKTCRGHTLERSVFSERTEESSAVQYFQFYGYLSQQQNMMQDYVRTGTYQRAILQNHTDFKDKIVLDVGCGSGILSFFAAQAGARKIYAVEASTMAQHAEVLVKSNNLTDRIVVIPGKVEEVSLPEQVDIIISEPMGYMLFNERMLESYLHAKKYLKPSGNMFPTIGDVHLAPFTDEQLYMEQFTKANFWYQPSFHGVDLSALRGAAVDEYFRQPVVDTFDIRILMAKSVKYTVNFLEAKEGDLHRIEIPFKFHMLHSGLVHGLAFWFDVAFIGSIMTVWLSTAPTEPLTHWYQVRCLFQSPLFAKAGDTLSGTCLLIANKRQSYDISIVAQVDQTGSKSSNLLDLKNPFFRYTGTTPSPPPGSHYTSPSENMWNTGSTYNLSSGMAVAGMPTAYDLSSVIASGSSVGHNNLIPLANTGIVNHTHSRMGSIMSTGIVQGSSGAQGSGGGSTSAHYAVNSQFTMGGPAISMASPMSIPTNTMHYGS
Experiment: radioactive assay (Reaction Biology Corp.), inhibition of PRMT4
Assay type: biochemical
Settings: not given
Protocol: as §1, §2

| SMILES | inhibition at 10 µM [%] |
| --- | --- |
| N=C(NCCSC[C@H]1O[C@@H](n2cnc3c(N)ncnc32)[C@H](O)[C@@H]1O)NCc1ccccc1 [Compound 5a] | 99 |
| N=C(NCCSC[C@H]1O[C@@H](n2cnc3c(N)ncnc32)[C@H](O)[C@@H]1O)Nc1cccc(I)c1 [Compound 5c] | 100 |
| N=C(NCCCSC[C@H]1O[C@@H](n2cnc3c(N)ncnc32)[C@H](O)[C@@H]1O)Nc1ccccc1 [Compound 5d] | 99 |
| N=C(NCCSC[C@H]1O[C@@H](n2cnc3c(N)ncnc32)[C@H](O)[C@@H]1O)Nc1cccc(-c2ccc(Cl)cc2)c1 [Compound 6a] | 100 |
| N=C(NCCSC[C@H]1O[C@@H](n2cnc3c(N)ncnc32)[C@H](O)[C@@H]1O)Nc1cccc(-c2ccc(C(F)(F)F)cc2)c1 [Compound 6b] | 100 |

Biological target: PRMT8 (Homo sapiens, UniProt Q9NR22)
Experiment: radioactive assay (Reaction Biology Corp.), inhibition of PRMT8
Assay type: biochemical
Settings: not given
Protocol: as §1, §2

Chain of PRMT8 (Q9NR22 whole entry, species assumed): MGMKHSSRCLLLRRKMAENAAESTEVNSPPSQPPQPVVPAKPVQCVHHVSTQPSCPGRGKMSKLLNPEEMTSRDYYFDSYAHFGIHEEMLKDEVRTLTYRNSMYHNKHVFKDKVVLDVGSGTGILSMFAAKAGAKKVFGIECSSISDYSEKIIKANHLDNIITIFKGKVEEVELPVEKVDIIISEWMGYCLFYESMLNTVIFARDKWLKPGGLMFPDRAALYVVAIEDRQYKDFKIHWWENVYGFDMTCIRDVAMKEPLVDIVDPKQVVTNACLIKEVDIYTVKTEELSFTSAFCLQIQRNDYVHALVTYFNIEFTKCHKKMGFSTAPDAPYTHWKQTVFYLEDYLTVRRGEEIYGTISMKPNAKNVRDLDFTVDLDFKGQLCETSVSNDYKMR

| SMILES | inhibition at 10 µM [%] |
| --- | --- |
| N=C(NCCSC[C@H]1O[C@@H](n2cnc3c(N)ncnc32)[C@H](O)[C@@H]1O)NCc1ccccc1 [Compound 5a] | 76 |
| N=C(NCCSC[C@H]1O[C@@H](n2cnc3c(N)ncnc32)[C@H](O)[C@@H]1O)Nc1cccc(I)c1 [Compound 5c] | 99 |
| N=C(NCCCSC[C@H]1O[C@@H](n2cnc3c(N)ncnc32)[C@H](O)[C@@H]1O)Nc1ccccc1 [Compound 5d] | 98 |
| N=C(NCCSC[C@H]1O[C@@H](n2cnc3c(N)ncnc32)[C@H](O)[C@@H]1O)Nc1cccc(-c2ccc(Cl)cc2)c1 [Compound 6a] | 97 |
| N=C(NCCSC[C@H]1O[C@@H](n2cnc3c(N)ncnc32)[C@H](O)[C@@H]1O)Nc1cccc(-c2ccc(C(F)(F)F)cc2)c1 [Compound 6b] | 94 |

Test system: PRMT3
Experiment: SAHH-coupled fluorescence assay, inhibition of PRMT3
Assay type: biochemical
Settings: read-out: IC50 [µM] | PRMT3
Protocol: A fluorescence-based SAHH-coupled assay was applied to study the inhibition activity of all synthesized compounds on PRMT 1 and 3.
(§3) The PRMT3 methylation assay was performed under the following conditions in a final well volume of 100 μL: 20 mM Tris (pH=7.5), 0.01% Triton X-100, 5 μM SAHH, 0.25 μM PRMT3, 30 μM AdoMet, and 15 μM ThioGlo4. […] Fluorescence was monitored on a BMG CLARIOstar microplate reader with excitation 380 nm and emission 505 nm. Data were processed by using GraphPad Prism software 8.0. All experiments were performed in duplicate.
as §1
as §3, with “8.0.” for “8.0. All experiments were performed in duplicate.”

| SMILES | IC50 [µM] |
| --- | --- |
| N=C(NCCSC[C@H]1O[C@@H](n2cnc3c(N)ncnc32)[C@H](O)[C@@H]1O)NCc1ccccc1 [Compound 5a] | 33 ± 4.3 |

Same assay, conditions: read-out: IC50[μM] | PRMT3

| SMILES | IC50 [µM] |
| --- | --- |
| N=C(NCCSC[C@H]1O[C@@H](n2cnc3c(N)ncnc32)[C@H](O)[C@@H]1O)Nc1cccc(I)c1 [Compound 5c] | 8.68 ± 2.9 |
| N=C(NCCCSC[C@H]1O[C@@H](n2cnc3c(N)ncnc32)[C@H](O)[C@@H]1O)Nc1ccccc1 [Compound 5d] | 7.2 ± 0.61 |
| N=C(NCCSC[C@H]1O[C@@H](n2cnc3c(N)ncnc32)[C@H](O)[C@@H]1O)Nc1cccc(-c2ccc(Cl)cc2)c1 [Compound 6a] | 5.9 ± 0.34 |
| N=C(NCCSC[C@H]1O[C@@H](n2cnc3c(N)ncnc32)[C@H](O)[C@@H]1O)Nc1cccc(-c2ccc(C(F)(F)F)cc2)c1 [Compound 6b] | 12 ± 0.83 |
